{"source": "paper PMC11167047", "about": "(Cell Death Discovery, 2024)", "test_in_all_cases": "kinome screen (33PanQinase)", "type_in_all_cases": "biochemical", "key": {"EPHB1": {"target": "T1, EPHB1 (Homo sapiens, UniProt P54762)", "T1 construct": "purchased Reaction Biology Europe GmbH (formerly ProQinase)", "T1 sequence (P54762 18-984)": "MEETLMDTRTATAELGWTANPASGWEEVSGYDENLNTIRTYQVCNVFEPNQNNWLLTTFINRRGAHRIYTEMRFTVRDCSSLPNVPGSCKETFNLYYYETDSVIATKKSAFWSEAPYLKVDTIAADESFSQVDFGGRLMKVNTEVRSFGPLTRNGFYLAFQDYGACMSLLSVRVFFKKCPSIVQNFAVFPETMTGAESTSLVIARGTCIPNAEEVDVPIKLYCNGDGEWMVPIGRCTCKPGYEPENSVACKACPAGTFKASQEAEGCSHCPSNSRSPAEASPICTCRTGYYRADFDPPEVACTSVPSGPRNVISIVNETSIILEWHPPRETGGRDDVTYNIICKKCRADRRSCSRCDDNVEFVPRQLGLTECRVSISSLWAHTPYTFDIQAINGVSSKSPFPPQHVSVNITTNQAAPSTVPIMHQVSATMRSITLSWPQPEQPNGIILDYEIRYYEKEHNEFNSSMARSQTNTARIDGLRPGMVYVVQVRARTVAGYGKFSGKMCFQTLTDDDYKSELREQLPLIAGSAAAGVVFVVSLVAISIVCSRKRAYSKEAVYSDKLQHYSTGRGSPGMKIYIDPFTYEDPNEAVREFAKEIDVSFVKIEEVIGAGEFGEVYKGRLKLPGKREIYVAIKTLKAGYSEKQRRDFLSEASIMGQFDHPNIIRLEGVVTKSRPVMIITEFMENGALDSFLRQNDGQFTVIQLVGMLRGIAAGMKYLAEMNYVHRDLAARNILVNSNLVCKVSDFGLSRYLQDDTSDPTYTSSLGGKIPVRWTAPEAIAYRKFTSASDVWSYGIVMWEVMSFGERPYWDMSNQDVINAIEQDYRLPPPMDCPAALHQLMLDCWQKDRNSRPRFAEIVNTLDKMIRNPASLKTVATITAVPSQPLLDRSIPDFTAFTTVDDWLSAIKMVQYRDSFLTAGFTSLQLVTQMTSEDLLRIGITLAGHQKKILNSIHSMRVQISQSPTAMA", "method": "(§1) The Kinome Screening was performed by Reaction Biology Europe GmbH (http://reactionbiology.com; Freiburg i. Br., Germany)."}, "FGFR4": {"target": "T2, FGFR4 (Homo sapiens, UniProt P22455)", "T2 construct": "purchased Reaction Biology Europe GmbH (formerly ProQinase)", "T2 sequence (P22455 22-802)": "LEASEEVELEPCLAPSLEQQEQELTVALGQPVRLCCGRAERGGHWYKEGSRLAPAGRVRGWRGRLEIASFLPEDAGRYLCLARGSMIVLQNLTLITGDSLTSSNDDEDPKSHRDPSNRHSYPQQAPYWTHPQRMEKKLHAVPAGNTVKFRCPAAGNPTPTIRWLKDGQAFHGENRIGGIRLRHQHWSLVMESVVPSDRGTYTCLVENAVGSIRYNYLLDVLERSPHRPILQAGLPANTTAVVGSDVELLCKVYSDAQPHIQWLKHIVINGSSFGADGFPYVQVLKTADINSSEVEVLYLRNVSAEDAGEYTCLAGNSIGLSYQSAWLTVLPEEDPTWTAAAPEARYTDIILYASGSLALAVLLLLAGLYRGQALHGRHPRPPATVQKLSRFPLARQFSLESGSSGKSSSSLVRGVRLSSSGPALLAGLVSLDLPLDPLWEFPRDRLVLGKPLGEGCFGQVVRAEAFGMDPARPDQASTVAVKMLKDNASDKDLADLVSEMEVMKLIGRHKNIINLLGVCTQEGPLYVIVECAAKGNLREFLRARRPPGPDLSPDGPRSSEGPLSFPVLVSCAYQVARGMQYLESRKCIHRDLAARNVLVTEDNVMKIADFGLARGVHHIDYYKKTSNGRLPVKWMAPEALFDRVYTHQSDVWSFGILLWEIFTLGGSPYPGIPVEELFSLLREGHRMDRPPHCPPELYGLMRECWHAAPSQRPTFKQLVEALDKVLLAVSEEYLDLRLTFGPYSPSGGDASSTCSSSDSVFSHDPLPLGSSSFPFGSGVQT", "method": "as §1"}, "GRK7": {"target": "T3, GRK7 (Homo sapiens, UniProt Q8WTQ7)", "T3 construct": "purchased Reaction Biology Europe GmbH (formerly ProQinase)", "T3 sequence (Q8WTQ7 1-553)": "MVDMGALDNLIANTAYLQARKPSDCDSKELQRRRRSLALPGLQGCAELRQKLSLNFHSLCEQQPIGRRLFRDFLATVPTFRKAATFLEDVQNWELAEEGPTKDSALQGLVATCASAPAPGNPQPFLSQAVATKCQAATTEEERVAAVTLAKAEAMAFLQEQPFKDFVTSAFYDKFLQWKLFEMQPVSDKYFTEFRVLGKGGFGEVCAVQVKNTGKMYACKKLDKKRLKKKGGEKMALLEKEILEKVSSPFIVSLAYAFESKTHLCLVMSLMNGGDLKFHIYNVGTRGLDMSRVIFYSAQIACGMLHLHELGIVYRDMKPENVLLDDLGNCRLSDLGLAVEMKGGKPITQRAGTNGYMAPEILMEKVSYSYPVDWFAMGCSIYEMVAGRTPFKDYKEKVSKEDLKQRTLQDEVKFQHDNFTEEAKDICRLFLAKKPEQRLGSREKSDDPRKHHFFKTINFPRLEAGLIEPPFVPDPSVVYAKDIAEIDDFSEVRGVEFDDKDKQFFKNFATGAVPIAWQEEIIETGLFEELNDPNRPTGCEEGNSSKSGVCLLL", "method": "as §1"}, "JAK1": {"target": "T4, JAK1 (Homo sapiens, UniProt P23458)", "T4 construct": "purchased Reaction Biology Europe GmbH (formerly ProQinase)", "T4 sequence (P23458 whole entry)": "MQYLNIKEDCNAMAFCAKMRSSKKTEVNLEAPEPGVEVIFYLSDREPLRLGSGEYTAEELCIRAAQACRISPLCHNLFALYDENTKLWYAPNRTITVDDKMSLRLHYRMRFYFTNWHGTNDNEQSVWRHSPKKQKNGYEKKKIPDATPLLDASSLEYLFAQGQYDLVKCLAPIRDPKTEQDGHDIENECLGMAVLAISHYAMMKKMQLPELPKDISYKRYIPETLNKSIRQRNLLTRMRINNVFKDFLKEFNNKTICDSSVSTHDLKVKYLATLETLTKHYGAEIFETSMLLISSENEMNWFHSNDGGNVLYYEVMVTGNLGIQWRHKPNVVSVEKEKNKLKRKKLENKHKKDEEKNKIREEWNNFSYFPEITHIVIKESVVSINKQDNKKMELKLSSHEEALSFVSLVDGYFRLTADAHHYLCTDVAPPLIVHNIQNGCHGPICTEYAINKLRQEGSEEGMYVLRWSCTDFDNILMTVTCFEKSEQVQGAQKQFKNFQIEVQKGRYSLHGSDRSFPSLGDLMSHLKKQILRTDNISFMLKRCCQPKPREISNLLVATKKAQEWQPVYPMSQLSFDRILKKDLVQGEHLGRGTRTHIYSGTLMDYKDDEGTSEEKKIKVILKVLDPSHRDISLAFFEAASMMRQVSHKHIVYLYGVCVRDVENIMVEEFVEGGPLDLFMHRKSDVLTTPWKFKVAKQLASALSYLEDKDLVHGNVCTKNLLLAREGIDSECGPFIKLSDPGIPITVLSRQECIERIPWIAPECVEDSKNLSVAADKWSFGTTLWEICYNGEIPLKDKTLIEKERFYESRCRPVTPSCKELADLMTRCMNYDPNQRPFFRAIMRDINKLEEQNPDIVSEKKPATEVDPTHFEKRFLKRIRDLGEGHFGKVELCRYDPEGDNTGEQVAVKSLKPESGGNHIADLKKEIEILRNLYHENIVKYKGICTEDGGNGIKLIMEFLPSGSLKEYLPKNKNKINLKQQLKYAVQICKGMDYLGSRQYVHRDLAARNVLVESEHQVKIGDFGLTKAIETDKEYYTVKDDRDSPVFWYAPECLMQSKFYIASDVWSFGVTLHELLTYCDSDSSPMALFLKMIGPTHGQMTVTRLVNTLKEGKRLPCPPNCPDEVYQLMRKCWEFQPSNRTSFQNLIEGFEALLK", "method": "as §1"}, "MYLK3": {"target": "T5, MYLK3 (Homo sapiens, UniProt Q32MK0)", "T5 construct": "purchased Reaction Biology Europe GmbH (formerly ProQinase)", "T5 sequence (Q32MK0 1-819)": "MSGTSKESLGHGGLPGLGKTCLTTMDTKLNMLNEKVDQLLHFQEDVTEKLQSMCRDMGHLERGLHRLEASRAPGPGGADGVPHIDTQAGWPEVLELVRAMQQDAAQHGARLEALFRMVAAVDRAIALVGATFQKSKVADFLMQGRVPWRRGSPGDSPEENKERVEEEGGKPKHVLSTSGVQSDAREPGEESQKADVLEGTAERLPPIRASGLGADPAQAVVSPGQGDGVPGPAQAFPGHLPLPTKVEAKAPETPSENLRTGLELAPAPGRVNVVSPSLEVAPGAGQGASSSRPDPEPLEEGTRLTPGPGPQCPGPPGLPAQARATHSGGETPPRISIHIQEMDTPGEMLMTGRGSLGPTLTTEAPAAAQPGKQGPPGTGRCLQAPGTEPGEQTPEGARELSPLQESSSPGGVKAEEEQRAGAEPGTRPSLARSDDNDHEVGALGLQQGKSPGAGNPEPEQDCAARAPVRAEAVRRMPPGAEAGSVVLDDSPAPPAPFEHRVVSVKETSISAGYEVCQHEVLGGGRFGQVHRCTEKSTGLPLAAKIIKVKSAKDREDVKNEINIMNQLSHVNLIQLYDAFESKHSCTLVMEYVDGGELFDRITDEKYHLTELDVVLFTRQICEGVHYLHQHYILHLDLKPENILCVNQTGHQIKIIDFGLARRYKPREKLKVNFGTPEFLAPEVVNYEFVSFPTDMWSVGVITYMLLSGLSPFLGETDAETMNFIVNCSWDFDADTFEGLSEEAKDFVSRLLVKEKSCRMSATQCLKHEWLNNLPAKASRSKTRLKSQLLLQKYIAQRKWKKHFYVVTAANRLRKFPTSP", "method": "as §1"}, "NEK6": {"target": "T6, NEK6 (Homo sapiens, UniProt Q9HC98)", "T6 construct": "purchased Reaction Biology Europe GmbH (formerly ProQinase)", "T6 sequence (Q9HC98 whole entry)": "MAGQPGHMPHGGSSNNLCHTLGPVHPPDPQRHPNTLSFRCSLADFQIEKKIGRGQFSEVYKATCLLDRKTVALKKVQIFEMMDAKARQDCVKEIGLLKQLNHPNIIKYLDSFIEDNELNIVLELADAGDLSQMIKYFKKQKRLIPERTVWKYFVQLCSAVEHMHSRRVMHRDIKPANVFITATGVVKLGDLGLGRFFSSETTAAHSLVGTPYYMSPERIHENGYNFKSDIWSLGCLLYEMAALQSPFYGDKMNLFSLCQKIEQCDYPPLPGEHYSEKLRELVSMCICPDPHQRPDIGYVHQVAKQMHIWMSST", "method": "as §1"}, "TGFBR2": {"target": "T7, TGFBR2 (Homo sapiens, UniProt P37173)", "T7 construct": "purchased Reaction Biology Europe GmbH (formerly ProQinase)", "T7 sequence (P37173 23-567)": "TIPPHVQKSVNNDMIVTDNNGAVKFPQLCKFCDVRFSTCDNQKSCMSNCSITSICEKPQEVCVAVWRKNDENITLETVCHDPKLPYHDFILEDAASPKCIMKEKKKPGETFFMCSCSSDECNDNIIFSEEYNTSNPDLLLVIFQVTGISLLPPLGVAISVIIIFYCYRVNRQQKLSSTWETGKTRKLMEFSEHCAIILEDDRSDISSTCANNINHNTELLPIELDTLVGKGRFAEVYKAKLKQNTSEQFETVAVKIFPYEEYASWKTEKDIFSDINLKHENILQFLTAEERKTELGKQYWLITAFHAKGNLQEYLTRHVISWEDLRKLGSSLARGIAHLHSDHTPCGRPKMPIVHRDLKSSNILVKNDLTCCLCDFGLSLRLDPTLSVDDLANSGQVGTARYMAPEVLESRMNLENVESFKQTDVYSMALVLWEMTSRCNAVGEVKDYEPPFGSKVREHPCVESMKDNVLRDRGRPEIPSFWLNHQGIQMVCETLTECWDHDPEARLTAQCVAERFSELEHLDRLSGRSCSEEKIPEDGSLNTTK", "method": "as §1"}, "WNK2": {"target": "T8, WNK2 (Homo sapiens, UniProt Q9Y3S1)", "T8 construct": "purchased Reaction Biology Europe GmbH (formerly ProQinase)", "T8 sequence (Q9Y3S1 whole entry)": "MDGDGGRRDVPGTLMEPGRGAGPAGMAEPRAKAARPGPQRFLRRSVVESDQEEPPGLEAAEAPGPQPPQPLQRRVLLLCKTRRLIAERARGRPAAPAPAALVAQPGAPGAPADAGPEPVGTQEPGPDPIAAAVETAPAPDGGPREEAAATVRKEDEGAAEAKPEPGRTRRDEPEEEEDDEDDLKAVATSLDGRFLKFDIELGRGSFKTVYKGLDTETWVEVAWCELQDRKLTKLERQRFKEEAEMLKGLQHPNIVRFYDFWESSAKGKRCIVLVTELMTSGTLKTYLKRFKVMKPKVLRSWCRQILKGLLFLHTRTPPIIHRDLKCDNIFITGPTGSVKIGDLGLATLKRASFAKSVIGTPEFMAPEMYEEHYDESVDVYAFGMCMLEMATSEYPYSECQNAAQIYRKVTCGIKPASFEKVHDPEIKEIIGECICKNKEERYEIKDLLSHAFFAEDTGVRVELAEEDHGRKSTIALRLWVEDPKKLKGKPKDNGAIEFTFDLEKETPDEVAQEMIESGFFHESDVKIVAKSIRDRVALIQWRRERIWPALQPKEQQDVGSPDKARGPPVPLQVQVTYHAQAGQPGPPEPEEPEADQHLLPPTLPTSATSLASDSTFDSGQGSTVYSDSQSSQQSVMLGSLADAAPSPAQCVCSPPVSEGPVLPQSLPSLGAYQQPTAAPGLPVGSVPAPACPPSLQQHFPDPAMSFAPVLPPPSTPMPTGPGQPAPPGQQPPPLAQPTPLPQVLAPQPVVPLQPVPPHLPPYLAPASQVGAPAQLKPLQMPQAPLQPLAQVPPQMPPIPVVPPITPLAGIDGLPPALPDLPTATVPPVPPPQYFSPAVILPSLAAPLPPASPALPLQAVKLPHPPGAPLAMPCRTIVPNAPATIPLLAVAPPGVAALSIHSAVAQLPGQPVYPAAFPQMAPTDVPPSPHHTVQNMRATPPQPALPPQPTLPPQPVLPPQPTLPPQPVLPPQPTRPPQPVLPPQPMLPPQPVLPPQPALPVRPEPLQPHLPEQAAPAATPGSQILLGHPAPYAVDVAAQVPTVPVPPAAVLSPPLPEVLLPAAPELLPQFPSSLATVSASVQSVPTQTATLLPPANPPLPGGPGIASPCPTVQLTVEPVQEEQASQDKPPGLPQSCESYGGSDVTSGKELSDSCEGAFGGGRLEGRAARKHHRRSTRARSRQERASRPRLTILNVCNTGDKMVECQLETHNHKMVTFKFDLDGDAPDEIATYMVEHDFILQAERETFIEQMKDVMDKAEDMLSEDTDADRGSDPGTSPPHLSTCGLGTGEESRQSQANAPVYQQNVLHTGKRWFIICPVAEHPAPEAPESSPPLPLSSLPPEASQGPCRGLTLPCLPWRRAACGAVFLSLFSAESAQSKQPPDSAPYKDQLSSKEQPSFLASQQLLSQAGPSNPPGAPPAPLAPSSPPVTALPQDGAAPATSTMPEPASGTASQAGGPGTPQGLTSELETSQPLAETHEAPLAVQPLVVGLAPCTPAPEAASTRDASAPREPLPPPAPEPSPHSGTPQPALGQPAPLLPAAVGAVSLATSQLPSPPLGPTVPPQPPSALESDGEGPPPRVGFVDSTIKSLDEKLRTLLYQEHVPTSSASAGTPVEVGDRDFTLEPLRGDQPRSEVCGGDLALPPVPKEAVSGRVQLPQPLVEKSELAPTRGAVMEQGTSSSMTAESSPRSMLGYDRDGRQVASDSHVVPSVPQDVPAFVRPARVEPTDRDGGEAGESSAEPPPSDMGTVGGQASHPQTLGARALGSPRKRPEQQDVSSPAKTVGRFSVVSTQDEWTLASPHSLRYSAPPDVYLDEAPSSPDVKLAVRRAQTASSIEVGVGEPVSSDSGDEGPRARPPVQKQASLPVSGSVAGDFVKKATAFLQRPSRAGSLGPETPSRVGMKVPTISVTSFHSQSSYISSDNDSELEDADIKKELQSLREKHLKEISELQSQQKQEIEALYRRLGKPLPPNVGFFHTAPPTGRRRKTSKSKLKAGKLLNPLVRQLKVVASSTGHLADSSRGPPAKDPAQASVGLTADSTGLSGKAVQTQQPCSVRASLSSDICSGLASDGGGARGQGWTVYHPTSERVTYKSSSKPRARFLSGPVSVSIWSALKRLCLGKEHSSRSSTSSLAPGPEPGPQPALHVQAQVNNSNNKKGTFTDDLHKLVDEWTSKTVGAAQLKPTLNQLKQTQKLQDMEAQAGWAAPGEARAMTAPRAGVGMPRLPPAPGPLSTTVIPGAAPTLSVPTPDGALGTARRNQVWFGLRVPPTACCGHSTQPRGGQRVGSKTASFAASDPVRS", "method": "as §1"}}}
{"compound": "COc1ccnc2[nH]cc(-c3cc(N)nc(N)c3)c12", "note": "[meriolin 16]", "values": [{"measurement": "residual kinase activity", "setting": "EPHB1; 0.03 µM", "result": "98 % of control"}, {"measurement": "residual kinase activity", "setting": "EPHB1; 0.3 µM", "result": "97 % of control"}, {"measurement": "residual kinase activity", "setting": "FGFR4; 0.03 µM", "result": "91 % of control"}, {"measurement": "residual kinase activity", "setting": "FGFR4; 0.3 µM", "result": "87 % of control"}, {"measurement": "residual kinase activity", "setting": "GRK7; 0.03 µM", "result": "105 % of control"}, {"measurement": "residual kinase activity", "setting": "GRK7; 0.3 µM", "result": "78 % of control"}, {"measurement": "residual kinase activity", "setting": "JAK1; 0.03 µM", "result": "78 % of control"}, {"measurement": "residual kinase activity", "setting": "JAK1; 0.3 µM", "result": "86 % of control"}, {"measurement": "residual kinase activity", "setting": "MYLK3; 0.03 µM", "result": "119 % of control"}, {"measurement": "residual kinase activity", "setting": "MYLK3; 0.3 µM", "result": "77 % of control"}, {"measurement": "residual kinase activity", "setting": "NEK6; 0.03 µM", "result": "107 % of control"}, {"measurement": "residual kinase activity", "setting": "NEK6; 0.3 µM", "result": "104 % of control"}, {"measurement": "residual kinase activity", "setting": "TGFBR2; 0.03 µM", "result": "109 % of control"}, {"measurement": "residual kinase activity", "setting": "TGFBR2; 0.3 µM", "result": "85 % of control"}, {"measurement": "residual kinase activity", "setting": "WNK2; 0.03 µM", "result": "99 % of control"}, {"measurement": "residual kinase activity", "setting": "WNK2; 0.3 µM", "result": "86 % of control"}]}
{"compound": "c1ccc(CNc2cc(-c3c[nH]c4ncccc34)ccn2)cc1", "note": "[meriolin 36]", "values": [{"measurement": "residual kinase activity", "setting": "EPHB1; 0.3 µM", "result": "124 % of control"}, {"measurement": "residual kinase activity", "setting": "EPHB1; 3 µM", "result": "79 % of control"}, {"measurement": "residual kinase activity", "setting": "FGFR4; 0.3 µM", "result": "98 % of control"}, {"measurement": "residual kinase activity", "setting": "FGFR4; 3 µM", "result": "58 % of control"}, {"measurement": "residual kinase activity", "setting": "GRK7; 0.3 µM", "result": "94 % of control"}, {"measurement": "residual kinase activity", "setting": "GRK7; 3 µM", "result": "48 % of control"}, {"measurement": "residual kinase activity", "setting": "JAK1; 0.3 µM", "result": "58 % of control"}, {"measurement": "residual kinase activity", "setting": "JAK1; 3 µM", "result": "25 % of control"}, {"measurement": "residual kinase activity", "setting": "MYLK3; 0.3 µM", "result": "71 % of control"}, {"measurement": "residual kinase activity", "setting": "MYLK3; 3 µM", "result": "21 % of control"}, {"measurement": "residual kinase activity", "setting": "NEK6; 0.3 µM", "result": "112 % of control"}, {"measurement": "residual kinase activity", "setting": "NEK6; 3 µM", "result": "108 % of control"}, {"measurement": "residual kinase activity", "setting": "TGFBR2; 0.3 µM", "result": "72 % of control"}, {"measurement": "residual kinase activity", "setting": "TGFBR2; 3 µM", "result": "24 % of control"}, {"measurement": "residual kinase activity", "setting": "WNK2; 0.3 µM", "result": "86 % of control"}, {"measurement": "residual kinase activity", "setting": "WNK2; 3 µM", "result": "74 % of control"}]}
